What was measured:
Assay in all cases: biochemical
Design in all cases: species or system HEK293/K-562/placenta mixed human extract; Kinobeads chemoproteomic competition binding, quantified by TMT LC-MS/MS, dose response up to 20 uM
[1] = target: BMP2K (Homo sapiens, UniProt Q9NSY1)
[2] = target: CDK7 (Homo sapiens, UniProt P50613)
[3] = target: CDKL5 (Homo sapiens, UniProt O76039)
[4] = target: CLK1 (Homo sapiens, UniProt P49759)
[5] = target: DYRK1A (Homo sapiens, UniProt Q13627)
[6] = target: EPHA1 (Homo sapiens, UniProt P21709)
[7] = target: EPHA5 (Homo sapiens, UniProt P54756)
[8] = target: IKBKG (Homo sapiens, UniProt Q9Y6K9)
[9] = target: LRRK2 (Homo sapiens, UniProt Q5S007)
[10] = target: MAPK1 (Homo sapiens, UniProt P28482)
[11] = target: NEK1 (Homo sapiens, UniProt Q96PY6)
[12] = target: NEK2 (Homo sapiens, UniProt P51955)
[13] = target: PHKA2 (Homo sapiens, UniProt P46019)
[14] = target: PLK4 (Homo sapiens, UniProt O00444)
[15] = target: PRKCI (Homo sapiens, UniProt P41743)
[16] = target: PRKD2 (Homo sapiens, UniProt Q9BZL6)
[17] = target: RIPK2 (Homo sapiens, UniProt O43353)
[18] = target: STK38 (Homo sapiens, UniProt Q15208)
[19] = target: STRADA (Homo sapiens, UniProt Q7RTN6)
[20] = target: TESK1 (Homo sapiens, UniProt Q15569)
[21] = target: TNK1 (Homo sapiens, UniProt Q13470)

Measured: IC50

CDKL5, sequence (O76039 whole entry): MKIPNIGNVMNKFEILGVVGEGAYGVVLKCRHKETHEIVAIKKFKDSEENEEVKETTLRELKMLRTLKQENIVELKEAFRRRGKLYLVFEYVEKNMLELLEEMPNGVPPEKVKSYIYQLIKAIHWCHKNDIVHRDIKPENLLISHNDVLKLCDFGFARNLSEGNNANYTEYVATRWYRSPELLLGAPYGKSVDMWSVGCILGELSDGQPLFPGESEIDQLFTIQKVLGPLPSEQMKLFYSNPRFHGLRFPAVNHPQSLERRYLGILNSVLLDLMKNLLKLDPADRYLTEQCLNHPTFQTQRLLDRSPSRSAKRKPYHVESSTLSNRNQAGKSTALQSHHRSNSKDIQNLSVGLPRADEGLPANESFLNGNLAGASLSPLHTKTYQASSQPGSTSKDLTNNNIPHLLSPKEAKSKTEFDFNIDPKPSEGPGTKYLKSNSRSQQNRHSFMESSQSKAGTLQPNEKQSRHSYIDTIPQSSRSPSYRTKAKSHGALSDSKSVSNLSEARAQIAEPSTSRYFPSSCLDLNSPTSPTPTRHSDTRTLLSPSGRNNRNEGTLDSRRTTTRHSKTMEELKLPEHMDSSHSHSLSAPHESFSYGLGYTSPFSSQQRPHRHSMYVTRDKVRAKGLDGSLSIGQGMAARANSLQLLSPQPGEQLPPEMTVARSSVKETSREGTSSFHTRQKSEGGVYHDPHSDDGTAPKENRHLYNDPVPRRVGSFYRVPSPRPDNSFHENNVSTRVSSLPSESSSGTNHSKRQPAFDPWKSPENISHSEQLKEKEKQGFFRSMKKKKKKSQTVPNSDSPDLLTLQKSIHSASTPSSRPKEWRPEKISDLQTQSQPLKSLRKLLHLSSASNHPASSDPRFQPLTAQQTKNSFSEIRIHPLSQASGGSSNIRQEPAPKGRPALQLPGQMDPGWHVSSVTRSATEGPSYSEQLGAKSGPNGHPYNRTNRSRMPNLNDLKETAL
PRKCI, sequence (P41743 whole entry): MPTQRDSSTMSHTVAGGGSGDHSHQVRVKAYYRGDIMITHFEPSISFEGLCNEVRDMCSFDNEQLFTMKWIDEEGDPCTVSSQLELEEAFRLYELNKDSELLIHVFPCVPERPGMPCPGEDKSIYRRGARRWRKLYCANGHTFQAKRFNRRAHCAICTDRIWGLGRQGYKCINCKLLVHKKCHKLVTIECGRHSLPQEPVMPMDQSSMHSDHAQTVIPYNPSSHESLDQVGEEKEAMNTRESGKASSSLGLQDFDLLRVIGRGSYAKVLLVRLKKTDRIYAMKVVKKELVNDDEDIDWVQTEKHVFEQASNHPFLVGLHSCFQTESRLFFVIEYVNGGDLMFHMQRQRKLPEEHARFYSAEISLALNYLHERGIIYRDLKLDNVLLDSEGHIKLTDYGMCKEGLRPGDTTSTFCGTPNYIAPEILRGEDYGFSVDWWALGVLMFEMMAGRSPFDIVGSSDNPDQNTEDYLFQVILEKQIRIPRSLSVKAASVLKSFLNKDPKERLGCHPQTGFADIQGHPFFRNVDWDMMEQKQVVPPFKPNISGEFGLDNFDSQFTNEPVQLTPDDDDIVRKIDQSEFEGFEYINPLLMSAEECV
TESK1, sequence (Q15569 whole entry): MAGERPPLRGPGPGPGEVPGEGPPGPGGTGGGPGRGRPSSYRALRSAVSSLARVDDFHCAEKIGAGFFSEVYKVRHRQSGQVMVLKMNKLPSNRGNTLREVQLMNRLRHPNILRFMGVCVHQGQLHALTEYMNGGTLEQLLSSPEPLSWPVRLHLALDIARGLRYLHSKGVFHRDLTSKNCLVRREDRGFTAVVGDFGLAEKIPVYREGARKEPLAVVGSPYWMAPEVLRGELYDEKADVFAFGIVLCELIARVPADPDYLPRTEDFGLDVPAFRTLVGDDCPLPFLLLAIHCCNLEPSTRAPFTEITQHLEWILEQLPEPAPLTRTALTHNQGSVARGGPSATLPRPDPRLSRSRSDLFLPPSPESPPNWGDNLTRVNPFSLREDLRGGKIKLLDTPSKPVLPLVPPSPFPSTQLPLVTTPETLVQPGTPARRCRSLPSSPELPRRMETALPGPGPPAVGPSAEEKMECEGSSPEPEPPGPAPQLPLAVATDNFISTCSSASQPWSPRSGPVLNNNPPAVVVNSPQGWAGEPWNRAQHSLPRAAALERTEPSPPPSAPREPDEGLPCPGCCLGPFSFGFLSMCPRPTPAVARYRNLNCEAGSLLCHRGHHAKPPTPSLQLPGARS
LRRK2, sequence (Q5S007 whole entry): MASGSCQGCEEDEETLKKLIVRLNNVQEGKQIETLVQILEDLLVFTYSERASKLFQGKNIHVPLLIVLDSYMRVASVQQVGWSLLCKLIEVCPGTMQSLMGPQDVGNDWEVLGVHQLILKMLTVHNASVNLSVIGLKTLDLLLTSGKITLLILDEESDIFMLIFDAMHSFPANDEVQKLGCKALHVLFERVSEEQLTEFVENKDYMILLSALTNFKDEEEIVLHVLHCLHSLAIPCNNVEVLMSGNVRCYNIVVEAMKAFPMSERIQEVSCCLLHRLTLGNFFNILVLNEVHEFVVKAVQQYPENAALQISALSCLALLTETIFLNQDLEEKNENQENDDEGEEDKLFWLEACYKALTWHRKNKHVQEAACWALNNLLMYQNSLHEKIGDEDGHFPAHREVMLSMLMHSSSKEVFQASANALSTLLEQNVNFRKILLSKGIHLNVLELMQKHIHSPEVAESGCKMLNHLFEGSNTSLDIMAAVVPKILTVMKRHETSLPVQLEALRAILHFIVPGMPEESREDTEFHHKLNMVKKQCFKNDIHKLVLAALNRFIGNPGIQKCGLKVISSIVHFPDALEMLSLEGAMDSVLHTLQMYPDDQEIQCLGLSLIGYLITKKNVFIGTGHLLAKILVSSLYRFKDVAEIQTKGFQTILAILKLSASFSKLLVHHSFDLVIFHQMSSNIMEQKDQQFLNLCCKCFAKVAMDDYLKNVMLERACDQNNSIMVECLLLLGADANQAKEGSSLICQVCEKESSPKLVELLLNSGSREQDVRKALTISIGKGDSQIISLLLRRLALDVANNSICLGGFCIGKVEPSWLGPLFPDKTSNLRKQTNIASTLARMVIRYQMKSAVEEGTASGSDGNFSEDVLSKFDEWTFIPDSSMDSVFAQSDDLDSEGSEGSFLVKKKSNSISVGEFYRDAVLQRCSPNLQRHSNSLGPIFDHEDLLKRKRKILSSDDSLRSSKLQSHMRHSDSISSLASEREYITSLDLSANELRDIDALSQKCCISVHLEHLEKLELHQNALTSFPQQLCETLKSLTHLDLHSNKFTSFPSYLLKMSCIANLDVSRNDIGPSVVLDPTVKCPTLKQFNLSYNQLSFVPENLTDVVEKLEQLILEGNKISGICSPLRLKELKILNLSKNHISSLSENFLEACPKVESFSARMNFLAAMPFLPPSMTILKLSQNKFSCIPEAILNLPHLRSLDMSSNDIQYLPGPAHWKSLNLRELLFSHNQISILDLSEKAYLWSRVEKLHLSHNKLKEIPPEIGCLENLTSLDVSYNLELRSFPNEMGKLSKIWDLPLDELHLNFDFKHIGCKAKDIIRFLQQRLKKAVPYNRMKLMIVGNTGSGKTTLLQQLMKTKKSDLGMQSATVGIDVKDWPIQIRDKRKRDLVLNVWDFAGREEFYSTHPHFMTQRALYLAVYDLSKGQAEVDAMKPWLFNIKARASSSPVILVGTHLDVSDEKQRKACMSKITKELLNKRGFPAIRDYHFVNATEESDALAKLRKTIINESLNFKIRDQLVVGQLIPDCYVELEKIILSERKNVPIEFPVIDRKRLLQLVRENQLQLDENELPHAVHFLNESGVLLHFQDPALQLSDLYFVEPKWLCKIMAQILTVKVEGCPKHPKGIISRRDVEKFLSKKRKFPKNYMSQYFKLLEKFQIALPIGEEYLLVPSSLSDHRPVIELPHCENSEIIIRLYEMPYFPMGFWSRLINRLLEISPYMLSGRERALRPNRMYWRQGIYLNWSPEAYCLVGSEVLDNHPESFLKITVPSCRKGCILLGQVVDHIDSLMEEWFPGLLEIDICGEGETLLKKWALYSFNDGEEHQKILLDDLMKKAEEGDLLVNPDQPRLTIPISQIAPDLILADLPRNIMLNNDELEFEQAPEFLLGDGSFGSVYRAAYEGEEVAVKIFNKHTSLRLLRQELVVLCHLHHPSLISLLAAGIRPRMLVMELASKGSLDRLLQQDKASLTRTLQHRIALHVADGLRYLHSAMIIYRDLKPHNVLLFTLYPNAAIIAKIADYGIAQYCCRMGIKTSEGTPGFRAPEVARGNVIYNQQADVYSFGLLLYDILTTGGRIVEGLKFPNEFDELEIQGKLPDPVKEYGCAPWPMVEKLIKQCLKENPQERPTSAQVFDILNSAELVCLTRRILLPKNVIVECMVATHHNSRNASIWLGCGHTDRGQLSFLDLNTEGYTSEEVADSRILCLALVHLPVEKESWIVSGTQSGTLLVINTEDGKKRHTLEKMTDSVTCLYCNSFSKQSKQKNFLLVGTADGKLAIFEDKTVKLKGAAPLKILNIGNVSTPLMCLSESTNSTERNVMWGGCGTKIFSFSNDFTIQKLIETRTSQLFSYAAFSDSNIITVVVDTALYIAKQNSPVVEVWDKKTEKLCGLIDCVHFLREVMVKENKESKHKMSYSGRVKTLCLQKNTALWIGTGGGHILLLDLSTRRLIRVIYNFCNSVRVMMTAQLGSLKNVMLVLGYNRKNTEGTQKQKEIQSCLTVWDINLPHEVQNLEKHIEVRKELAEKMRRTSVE
CDK7, sequence (P50613 whole entry): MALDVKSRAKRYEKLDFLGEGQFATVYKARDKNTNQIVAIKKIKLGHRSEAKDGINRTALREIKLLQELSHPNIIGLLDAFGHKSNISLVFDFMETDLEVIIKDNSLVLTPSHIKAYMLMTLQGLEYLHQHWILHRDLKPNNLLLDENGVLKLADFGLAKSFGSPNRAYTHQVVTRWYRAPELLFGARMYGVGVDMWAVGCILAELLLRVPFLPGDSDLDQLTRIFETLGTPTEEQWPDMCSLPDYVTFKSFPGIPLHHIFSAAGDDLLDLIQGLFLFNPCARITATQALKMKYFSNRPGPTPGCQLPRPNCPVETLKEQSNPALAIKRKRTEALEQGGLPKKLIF

COc1ccccc1-c1n[nH]c2nc(N[C@H]3CC[C@H](NS(=O)(=O)CCC(F)(F)F)CC3)nc(OC)c12 [compound 31, 3,3,3-Trifluoro-N-(trans-4-((4-methoxy-3-(2-methoxyphenyl)-1H-pyrazolo[3,4-d]pyrimidin-6-yl)amino)cyclohexyl)propane-1-sulfonamide]
≥ 20 µM: all assays above
